The values that follow come from US7041461B2 (H. Lundbeck A/S, priority 1998, dated 2006).

What all share (assay type): cell-based
In one assay the target is T1, NPFF-1 receptor (Rattus norvegicus, UniProt Q9EP86).
T1 construct: expressed in transfected cells; host or cells: Cos-7 cells, transient, intact cells
Briefly: Total inositol phosphate release in transiently transfected Cos-7 cells.

Another assay deals with T2, SNORF2 (NPFF1) (Rattus norvegicus, UniProt Q9EP86).
T2 construct: from linearized plasmids or PCR products containing the complete coding region of the genes; expressed in transfected cells; host or cells: Xenopus laevis oocytes injected with synthetic RNA
T2 sequence (Q9EP86 whole entry): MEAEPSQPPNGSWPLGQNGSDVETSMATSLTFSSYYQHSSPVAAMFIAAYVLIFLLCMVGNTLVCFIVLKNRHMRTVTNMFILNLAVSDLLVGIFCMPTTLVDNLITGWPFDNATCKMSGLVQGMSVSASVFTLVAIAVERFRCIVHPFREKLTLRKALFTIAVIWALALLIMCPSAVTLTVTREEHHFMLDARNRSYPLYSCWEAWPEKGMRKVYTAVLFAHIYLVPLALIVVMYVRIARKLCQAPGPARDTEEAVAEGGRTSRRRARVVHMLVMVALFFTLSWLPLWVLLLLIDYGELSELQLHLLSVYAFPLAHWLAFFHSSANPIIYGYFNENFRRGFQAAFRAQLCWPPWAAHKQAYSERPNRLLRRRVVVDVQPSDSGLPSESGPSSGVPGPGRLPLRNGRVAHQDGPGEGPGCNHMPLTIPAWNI
Briefly: Voltage-clamp electrophysiology in Xenopus oocytes expressing SNORF2 (NPFF1) and chimeric Gαq/z. To be noted: oocytes with SNORF2 and Gαq/z; for inward current response: 1 μM, holding potential −80 mV. As for the experimental part: (§1) Oocytes were harvested from Xenopus laevis and injected with mRNA transcripts as previously described (Quick and Lester, 1994; Smith et al., 1997). […] Three to eight hours prior to recording, oocytes were injected with 500 pg Gαq/z mRNA in order to observe coupling to Ca^++ activated Cl^− currents. Dual electrode voltage clamp (Axon Instruments Inc.) was performed using 3 M KCl-filled glass microelectrodes having resistances of 1–2 Mohm. Unless otherwise specified, oocytes were voltage clamped at a holding potential of −80 mV. During recordings, oocytes were bathed in continuously flowing (1–3 ml/min) medium containing 96 mM NaCl, 2 mM KCl, 1.8 mM CaCl2, 1 mM MgCl2, and 5 mM HEPES, pH 7.5 (ND96). Drugs were applied either by local perfusion from a […] glass capillary tube fixed at a distance of 0.5 mm from the oocyte, or by switching from a series of gravity fed perfusion lines.
Heterologous expression of GPCRs in Xenopus oocytes has been widely used to determine the identity of signaling pathways activated by agonist stimulation (Gundersen et al., 1983; Takahashi et al., 1987). Activation of the phospholipase C (PLC) pathway is assayed by applying test compound in ND96 solution to oocytes previously injected with mRNA for the mammalian receptor and observing inward currents at a holding potential of −80 mV. The appearance of currents that reverse at −25 mV and display other properties of the Ca^++-activated Cl^− (chloride) channel is indicative of mammalian receptor-activation of PLC and release of IP3 and intracellular Ca^++.
Control oocytes receiving only G-protein synthetic RNA were unresponsive to these peptides. […] Similarly, SNORF2-like was renamed NPFF-like.

The target in a further assay is T3, NPFF1 (SN2) (Rattus norvegicus, UniProt Q9EP86).
T3 construct: expressed in transfected cells; host or cells: CHO (CHO-K1) cells, transient
T3 sequence (Q9EP86 whole entry): as above
Briefly: Microphysiometric measurement of extracellular acidification rate in transiently transfected CHO cells. To be noted: CHO cells transfected with NPFF1 alone; read-out: EC50, increase in extracellular acidification rate. An excerpt:
Microphysiometric response of CHO cells transiently transfected with either NPFF1 (SN2) alone or NPFF1 accompanied by Gq/Gz. […] In both FIGS. 17A and 17B control cells mock transfected with empty vector produced little if any response to drug even at the highest concentrations used. Responses are reported as percentage increase in the acidification rate as observed just prior to drug challenge (immediate prior basal rate).
General guidelines for transient receptor expression, cell preparation and microphysiometric recording are described elsewhere (Salon, J. A. and Owicki, J. A., 1996). Receptors and/or control vectors are transiently expressed in CHO-K1 cells, by liposome mediated transfection according to the manufacturers recommendations (Lipof ectAMINE, GibcoBRL, Gaithersburg, Md.), and maintained in Ham's F-12 complete (10% serum). […]
A standard recording protocol specifies a 100 μl/min flow rate, with a 2 min total pump cycle which includes a 30 sec flow interrruption during which the acidification rate measurement is taken. […] Ligand samples are then washed out and the acidification rates reported are expressed as a percentage increase of the peak response over the baseline rate observed just prior to challenge. […]

The next assay deals with T4, NPFF2 (hNPFF2) (Homo sapiens, UniProt Q9Y5X5).
T4 construct: BO89, was determined to be a full length clone with no point mutations; expressed in transfected cells; host or cells: Xenopus laevis oocytes injected with synthetic mRNA
T4 sequence (Q9Y5X5 103-522): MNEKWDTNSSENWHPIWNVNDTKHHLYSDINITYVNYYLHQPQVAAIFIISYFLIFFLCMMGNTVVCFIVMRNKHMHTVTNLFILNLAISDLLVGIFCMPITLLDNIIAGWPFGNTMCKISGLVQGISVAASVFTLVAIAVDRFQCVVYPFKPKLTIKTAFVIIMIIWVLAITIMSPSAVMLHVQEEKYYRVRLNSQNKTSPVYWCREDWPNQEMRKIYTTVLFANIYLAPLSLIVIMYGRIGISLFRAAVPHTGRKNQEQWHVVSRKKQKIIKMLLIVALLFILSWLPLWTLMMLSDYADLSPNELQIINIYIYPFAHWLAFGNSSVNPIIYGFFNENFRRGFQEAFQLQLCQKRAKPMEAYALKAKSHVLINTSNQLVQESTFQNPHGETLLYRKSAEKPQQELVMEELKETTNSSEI
Description: Voltage-clamp electrophysiology in Xenopus oocytes expressing NPFF2 (NPFF-like) and chimeric Gαq/z. To be noted: 1 μM; oocytes with NPFF2 (NPFF-like) mRNA and Gαq/z; −80 mV. How it is done:
Electrophysiological responses in voltage-clamped oocytes expressing NPFF2 mRNA. […] Oocytes were clamped at a holding potential of −80 mV.
For expression of NPFF2, mRNA transcripts were generated as described for NPFF1, using PCR products from ligation reactions or linearized DNA from B089 as DNA templates. Oocytes were injected with 5–50 ng NPFF2 mRNA and incubated as previously described.
as §1

As usually defined, the EC50 is the concentration needed to bring the measured effect to its halfway point.

T1 sequence (Q9EP86 whole entry): as the sequence (Q9EP86 whole entry) above

On to `CC(C)C[C@H](NC(=O)[C@@H](N)Cc1ccccc1)C(=O)N[C@@H](Cc1ccccc1)C(=O)N[C@@H](CCC(N)=O)C(=O)N1CCC[C@H]1C(=O)N[C@@H](CCC(N)=O)C(=O)N[C@@H](CCCNC(=N)N)C(=O)N[C@@H](Cc1ccccc1)C(N)=O` [NPFF(F-8-Fa)], for which, on NPFF-1 receptor (Cos-7 cells transfected with NPFF1 alone), the “Emax, total IP release” value is on record as “approximately 200 % basal”. In addition, on NPFF-1 receptor (Cos-7 cells transfected with NPFF1 receptor and Gq/Gz chimera), the “Emax, total IP release” value is given as “approximately 1500 % basal”. Moreover, at SNORF2 (NPFF1), the inward current response entry was “robust inward currents” and the “threshold for activation of inward current” value was found to be 30 nM.

As to H-AGEGLSSPFWSLAAPQRF-NH2 [A18Fa], the concentration giving a half-maximal response (EC50) on NPFF1 (SN2) worked out at 0.15 µM. Also, the values for the inward current response result at SNORF2 (NPFF1) and on NPFF2 (hNPFF2) were “robust inward currents” and “activated similar inward currents”, respectively.
